The values that follow come from patent publication US5380729A, “12-hetero substituted 6,11-ethano-6,11-dihydrobenzo (b) quinolizinium salts and compositions and method of use thereof” (Sterling Winthrop Inc., priority 1993, dated 1995).

The assay addresses PCP recognition sites. Description: [3H]TCP Radioreceptor Assay (internal screen). The class given is binding, rat (male Sprague-Dawley. Particulars: rat whole brain membranes, room temperature, 25 min; for Ki: ~1 nM [3H]TCP; for Percent inhibition, [3H]TCP (internal screen): @ 10 μM. On the procedure: [^3 H]TCP Radioreceptor Assay (internal screen)
[^3 H]TCP binding to PCP recognition sites was performed as described by Vignon et al. Brain Research 1983, 280, 194°197. Male Sprague-Dawley rats were sacrificed by decapitation, and whole brains were homogenized in 10 volumes (wt/vol) of cold Tris-HCl buffer (50 mM, pH 7.7) using a Brinkmann Polytron (setting 6, 30 sec). The homogenate was centrifuged at 40,000×g for 10 min at 4° C. The supernatant was decanted, and the homogenization and centrifugation steps were repeated twice as described above. Following this, the pellet was resuspended in Tris-HCl (5 mM, pH 7.7) at a tissue concentration of 0.5°0.75 g/ml, and one ml aliquots were frozen at -70° C. until use. The binding characteristics for PCP recognition sites were not altered by the freezing of membrane suspensions.
On the day of the assay, membrane aliquots were thawed, resuspended in fresh 5 mM Tris-HCl buffer at a tissue concentration of 1 mg/ml, and stored on ice until use. Each assay tube contained 100 μl of [^3 H]TCP at a final concentration of approximately 1 nM, 100 μl of various concentrations of the compounds of interest, 500 μl of the tissue suspension and 300 of buffer to a final assay volume of 1 ml and a final protein concentration of 0.5 mg/tube. Non-specific binding was defined by addition of a final concentration of 100 μM PCP to blank tubes. All tubes were incubated at room temperature for 25 min before termination of the reaction by rapid filtration over Whatman GF/B glass fiber filters that had been presoaked in a solution of 0.5% polyethylenimine for at least 1 hr prior to use. Filters were washed with three 4 ml volumes of cold Tris buffer. Following addition of scintillation cocktail, the amount of bound radioactivity was determined by liquid scintillation spectrometry using a Beckman LS 5000TA liquid scintillation counter with an efficiency for tritium of approximately 55% . Inhibition constants (Ki values) were calculated using the EBDA/LIGAND program (McPherson, J. Pharmacol. Meth. 1985, 14, 213-228), purchased from Elsevier/Biosoft, Inc. Results are reported as Ki values or as a percent (%) inhibition of binding at 10

The term Ki denotes the dissociation constant of the complex between target and ligand, obtained from inhibition or displacement. Read a low Ki as tighter binding.

`CCOC1(OCC)C2c3ccccc3C([n+]3ccccc32)C1(CC)CC` (stereo not shown) [17(c), 12,12-diethoxy-13,13-diethyl-6,11-ethano-6,11-dihydrobenzo[b]quinoliziniumperchlorate] displayed a Ki of 10.6 nM.

On to `CCOC1(OCC)C2c3ccccc3C(C1C)[n+]1ccccc12.[O-][Cl+3]([O-])([O-])[O-]` (stereo not shown) [63(d), 12,12-Diethoxy-13-methyl-6,11-ethano-6,11-dihydrobenzo[b]quinolizinium perchlorate], for which the Ki came to 49.3 nM.

`CCOC1(OCC)C2c3ccccc3C([n+]3ccccc32)C1(C)C` (single isomer, unassigned) [7(b), 12,12-diethoxy-13,13-dimethyl-6,11-ethano-6,11-dihydrobenzo[b]quinolizinium·-[(-)-DBT]]: the inhibition constant (Ki) is 14.1 nM.

Take `C[C@@H]1C[C@@H](C)OC2(O1)C1c3ccccc3C([n+]3ccccc31)C2(C)C` (stereo partly drawn) [Example 11, 12,12-(2R,4R-pentanediolketal)-13,13-dimethyl-6,11-ethano-6,11-dihydrobenzo[b]-quinolizinium chloride·1/2 hydrate]: the affinity (hydrate) corresponds to a Ki of 497 nM. In other words, the sub-micromolar range.

`CC1(C)C2c3ccccc3C(c3cccc[n+]32)C12OCCO2` (stereo not shown) [Example 18, 12,..12-(1; 2-ethanediolketal)-13,13-dimethyl-6,11-ethano-6,11-dihydrobenzo[b]quinolizinium perchlorate] came in with a Ki of 4000 nM.

The molecule `CCOC1(OCC)C(C)C2c3ccccc3C1(C)c1cccc[n+]12.[O-][Cl+3]([O-])([O-])[O-]` (stereo not shown) [63(l), 11-Methyl-12,12-diethoxy-13-methyl-6,11-ethano-6,11-dihydrobenzo[b]quinolizinium perchlorate] showed a Ki of 39.3 nM.

The molecule `CCOC1(OCC)C2c3c(Br)cccc3C([n+]3ccccc32)C1(C)C` (stereo not shown) [Example 30, 6,11-ethano-12,12-diethoxy-13,13-dimethyl-10-bromo-6,11-dihydrobenzo[b]quinolizinium chloride] registered a Ki of 107 nM.

`CCOC1(OCC)C2c3c(OC)cccc3C([n+]3ccccc32)C1(C)C` (stereo not shown) [19(b), 10-methoxy-12,12-diethoxy-13-13-dimethyl-6,11-ethano-6,11-dihydrobenzo[b]quinolizinium perchlorate]: the affinity, expressed as Ki, was 13.2 nM. Against the preceding molecule, the Ki is about 8.1-fold lower.

In turn, `CCOC1(OCC)C2c3c(ccc4c3OCO4)C([n+]3ccccc32)C1(C)C.[O-][Cl+3]([O-])([O-])[O-]` (stereo not shown) [Example 31, 6,11-ethano-12,12-diethoxy-13,13-dimethyl-9,10-methylenedioxy-6,11-dihydrobenzo[b]quinolizinium perchlorate] yielded a Ki of 7.42 nM.

With `CCOC1(OCC)C2(C)c3c(OC)cccc3C([n+]3ccccc32)C1(C)C.[O-][Cl+3]([O-])([O-])[O-]` (stereo not shown) [Example 32, 6,11-ethano-12,12-diethoxy-13,13-dimethyl-10-methoxy-11-methyl-6,11-dihydrobenzo[b]quinolizinium perchlorate], the Ki was determined as 63.7 nM.

For `C[C@@H]1C[C@@H](C)OC2(O1)C1c3ccccc3C([n+]3ccccc31)C2(C)C` (stereo partly drawn) [Example 45, 6,11-ethano-12,12-(2R,4R-pentanediolketal)-13,13-dimethyl-6,11-dihydrobenzo[b]quinolizinium perchlorate], the Ki came to 517 nM.

Consider `CCOC1(OCC)C2c3c(C(C)(C)C)ccc(OC(C)=O)c3C([n+]3ccccc32)C1(C)C.[O-][Cl+3]([O-])([O-])[O-]` (stereo not shown) [Example 58, 6,11-ethano-12,12-diethoxy-13,13-dimethyl-7-acetoxy-10-t-butyl-6,11-dihydrobenzo[b]quinolizinium perchlorate], for which the “Percent inhibition, [3H]TCP (internal screen)” value stood at 12%.

As for `CCOC1(OCC)C2c3cccc(C)c3C([n+]3ccccc32)C1(C)C` (stereo not shown) [Example 55, 6,11-ethano-12,12-diethoxy-13,13-dimethyl-7-methyl-6,11-dihydrobenzo[b]quinolizinium chloride], affinity was put at a Ki of 455 nM.

In turn, `CCOC1(OCC)C2c3c(O)cccc3C([n+]3ccccc32)C1(C)C` (stereo not shown) [15(c), 10-hydroxy-12,12-diethoxy-13,13-dimethyl-6,11-ethano-6,11-dihydrobenzo[b]quinolizinium chloride] came in with an inhibitory constant (Ki) of 6.9 nM.

`CCOC1(OCC)C2c3c(F)cc(F)cc3C([n+]3ccccc32)C1(C)C` (stereo not shown) [24(b), 6,11-ethano-12,12-diethoxy-13,13-dimethyl-8,10-difluoro-6,11-dihydrobenzo-[b]quinolizinium chloride] displayed a Ki of 272 nM. This Ki lies about 39-fold higher than the previous one.

Consider `COC1(OC)C2c3ccccc3C([n+]3ccccc32)C1(C)C.[O-][Cl+3]([O-])([O-])[O-]` (stereo not shown) [63(m), 12,12-dimethoxy-13,13-dimethyl-6,11-ethano-6,11-dihydrobenzo[b]quinolizinium perchlorate], for which the inhibition constant (Ki) was found to be 111 nM.

Consider `CCN(CC)C1C2c3ccccc3C(C1C)[n+]1ccccc12` (single isomer, unassigned) [Example 61, 6,11-ethano-12-(diethyl) amino-13-methyl-6,11-dihydrobenzo[b]quinolizinium diperchlorate], for which the Ki came to 5420 nM.

In turn, `CCOC1(OCC)C2c3c(OC(C)=O)cccc3C([n+]3ccccc32)C1(C)C.[O-][Cl+3]([O-])([O-])[O-]` (stereo not shown) [15(a), 10-acetoxy-12,12-diethoxy-13,13-dimethyl-6,11-ethano-6,11-dihydrobenzo[b]quinolizinium perchlorate] came in with a Ki of 26.4 nM.

The molecule `C[C@@H]1C[C@@H](C)OC2(O1)C1c3ccccc3C([n+]3ccccc31)C2(C)C` (single isomer, unassigned) [Example 10(c)] registered a Ki of 365 nM.

Molecule `CCOC1(OCC)C2c3ccccc3C([n+]3ccccc32)C1(C)C` [Example 5, 12,12-diethoxy-13,13-dimethyl-6,11-ethano-6,11-dihydrobenzo[b]quinolizinium (S)-(+)-CH3 C(Ph)(OH)CO2^-] gave a Ki of 5.25 nM. This Ki is about 70-fold lower than that of the molecule before.

For `CCOC1(OCC)C2c3c(C)cccc3C([n+]3ccccc32)C1(C)C.[O-][Cl+3]([O-])([O-])[O-]` (stereo not shown) [Example 47, 6,11-ethano-12,12-diethoxy-13,13-dimethyl-10-methyl-6,11-dihydrobenzo[b]quinolizinium perchlorate], the Ki worked out at 45.5 nM.

`CCOC1(OCC)C2c3c(OC(C)C)cccc3C([n+]3ccccc32)C1(C)C` (stereo not shown) [34(b), 6,11-ethano-12,12-diethoxy-13,13-dimethyl-10-isopropoxy-6,11-dihydrobenzo[b]quinolizinium chloride] had an inhibitory constant (Ki) of 47.5 nM. The Ki values of the last two molecules are within 1.5-fold of each other.

Molecule `CCOC1C2c3ccccc3C([n+]3ccccc32)C1(C)C.[O-][Cl+3]([O-])([O-])[O-]` (stereo not shown) [Example 48, 6,11-ethano-12-ethoxy-13,13-dimethyl-6,11-dihydrobenzo[b]quinolizinium perchlorate] came in with a Ki of 2150 nM.

For the molecule `CCOC1(OCC)C2c3ccccc3C([n+]3ccccc32)C1(C)C` (stereo not shown) [Example 4, 12,12-diethoxy-13,13-dimethyl-6,11-ethano-6,11-dihydrobenzo[b]quinolizinium camphanate], the affinity corresponds to a Ki of 5.66 nM.

For the molecule `CCN(CC)C1C2c3ccccc3C([n+]3ccccc32)C1(C)C` (stereo not shown) [Example 44, 6,11-ethano-12-(diethyl) amino-13,13-dimethyl-6,11-dihydrobenzo[b]quinolizinium diperchlorate], the affinity corresponds to a Ki of 501 nM. This Ki is about 89-fold higher than that of the molecule before.

Take `CCOC1(OCC)C2c3cccc(C)c3C(C1C)[n+]1ccccc12.[O-][Cl+3]([O-])([O-])[O-]` (stereo not shown) [63(k), 7-Methyl-12,12-diethoxy-13-methyl-6,11-ethano-6,11-dihydrobenzo[b]quinolizinium perchlorate]: the Ki came to 2460 nM.

`CCOC1C2c3ccccc3C([n+]3ccccc32)C1(C)C` (single isomer, unassigned) [Example 49, 6,11-ethano-12-ethoxy-13,13-dimethyl-6,11-dihydrorbenzo[b]quinolizinium perchlorate] returned an inhibition constant Ki of 515 nM.

Consider “12,12-Diethylamino-13-phenyl-6,11-ethano-6,11-dihydrobenzo[b]quinolizinium perchlorate [63(j)]”, for which the Ki came to 14400 nM.

In turn, `CCOC1(OCC)C2c3ccccc3C([n+]3cccc(OC)c32)C1(C)C.[O-][Cl+3]([O-])([O-])[O-]` (stereo not shown) [Example 33, 6,11-ethano-12,12-diethoxy-13,13-dimethyl-1-methoxy-6,11-dihydrobenzo-[b]quinolizinium perchlorate] gave a Ki of 25.8 nM.

For the molecule `CC1(C)C2c3ccccc3C(c3cccc[n+]32)C12O[C@H](COCc1ccccc1)[C@@H](COCc1ccccc1)O2` (stereo partly drawn) [Example 9, 12,12-(1R,2R-dibenzyloxymethyl-ethanediolketal)-13,13-dimethyl-6,11-ethano-6,11-dihydrobenzo[b]quinolizinium perchlorate], the “Percent inhibition, [3H]TCP (internal screen)” value is given as 11%.

The molecule `C[C@@H]1C[C@@H](C)OC2(O1)C1c3ccccc3C([n+]3ccccc31)C2(C)C` (single isomer, unassigned) [Example 10(b)] registered an inhibition constant (Ki) of 614 nM.
